Assay results reported in the supplement of paper PMC10307832.

Legend:
Experiment in all cases: relative viability (nuclei count vs DMSO), 5 days (fraction); higher = more cells survive
RU-SKI 43 + Trametinib = compound: CC[C@@H](C)CNCC(=O)N1CCC2=C([C@@H]1COC3=CC=CC(=C3)C)C=CS2 [RU-SKI 43] + CC(=O)Nc1cccc(-n2c(=O)n(C3CC3)c(=O)c3c(Nc4ccc(I)cc4F)n(C)c(=O)c(C)c32)c1 [Trametinib] (partner 0.02 µM)
In short: (§1)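 A single step with final 0.05% Triton X-100, 1% formaldehyde and 1 ug/ml Hoechst fixed the cells and stained nuclei 5 days after treatment. Lung cancer cell lines in 1536-well plates had been treated by pin tool the day after seeding with one drug alone or a fixed anchor-drug dose plus five library-drug doses (not always all listed) in √10 steps, and nuclei were counted on 4× images. Relative viability is the ratio of nuclei in treated wells to nuclei in vehicle wells, taken as the median of duplicate plates.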

RU-SKI 43 + Pemetrexed = compound: CC[C@@H](C)CNCC(=O)N1CCC2=C([C@@H]1COC3=CC=CC(=C3)C)C=CS2 [RU-SKI 43] + Nc1nc2[nH]cc(CCc3ccc(C(=O)N[C@@H](CCC(=O)O)C(=O)O)cc3)c2c(=O)[nH]1 [Pemetrexed] (partner 0.2 µM)
In short: as §1

MK-8033 + Alpelisib = compound: Cn1cc(-c2cnc3ccc4ccc(CS(=O)(=O)NCc5ccccn5)cc4c(=O)c3c2)cn1 [MK-8033] + Cc1nc(NC(=O)N2CCC[C@H]2C(N)=O)sc1-c1ccnc(C(C)(C)C(F)(F)F)c1 [Alpelisib] (partner 2 µM)
In short: as §1

MK-8033 + Decitabine = compound: Cn1cc(-c2cnc3ccc4ccc(CS(=O)(=O)NCc5ccccn5)cc4c(=O)c3c2)cn1 [MK-8033] + Nc1ncn([C@H]2C[C@H](O)[C@@H](CO)O2)c(=O)n1 [Decitabine] (partner 2 µM)
In short: as §1

Cell Line	relative viability (RU-SKI 43 + Trametinib; first compound 0.1 µM)	relative viability (RU-SKI 43 + Trametinib; first compound 0.3162 µM)	relative viability (RU-SKI 43 + Trametinib; first compound 1 µM)	relative viability (RU-SKI 43 + Trametinib; first compound 3.162 µM)	relative viability (RU-SKI 43 + Trametinib; first compound 10 µM)	relative viability (RU-SKI 43 + Pemetrexed; first compound 0.1 µM)	relative viability (RU-SKI 43 + Pemetrexed; first compound 0.3162 µM)	relative viability (RU-SKI 43 + Pemetrexed; first compound 1 µM)	relative viability (RU-SKI 43 + Pemetrexed; first compound 3.162 µM)	relative viability (RU-SKI 43 + Pemetrexed; first compound 10 µM)	relative viability (MK-8033 + Alpelisib; first compound 0.02 µM)	relative viability (MK-8033 + Alpelisib; first compound 0.06325 µM)	relative viability (MK-8033 + Alpelisib; first compound 0.2 µM)	relative viability (MK-8033 + Alpelisib; first compound 0.6325 µM)	relative viability (MK-8033 + Alpelisib; first compound 2 µM)	relative viability (MK-8033 + Decitabine; first compound 0.02 µM)	relative viability (MK-8033 + Decitabine; first compound 0.06325 µM)	relative viability (MK-8033 + Decitabine; first compound 0.2 µM)	relative viability (MK-8033 + Decitabine; first compound 0.6325 µM)	relative viability (MK-8033 + Decitabine; first compound 2 µM)
NCI-H1666	0.831	0.804	0.803	0.845	0.68	0.864	0.914	0.901	0.815	0.844	0.937	1.01	0.874	0.998	0.942	0.792	0.746	0.728	0.766	0.736
HARA	0.507	0.806	1.02	0.936	0.561	0.265	0.264	0.259	0.277	0.254	0.777	0.742	0.76	0.743	0.871	0.651	0.508	0.463	0.559	0.605
NCI-H661	0.539	0.676	0.564	0.564	0.477	0.874	1.05	0.902	0.952	0.861	0.581	0.261	0.634	0.592	0.778	0.528	0.441	0.53	0.531	0.528
NCI-H2087	0.233	0.159	0.221	0.189	0.161	0.684	0.762	0.714	0.694	0.692	1.15	1.05	1.05	1.05	1	0.223	0.159	0.289	0.272	0.277
LC-2-ad	0.951	1.08	0.985	0.928	0.847	0.262	0.25	0.31	0.258	0.247	0.888	0.864	0.825	0.823	0.849	0.889	1.08	0.722	0.813	0.722
NCI-H2405	0.645	0.681	0.612	0.713	0.581	1.16	1.14	1.11	1.21	1.13	0.732	0.731	0.699	0.765	0.736	0.776	0.703	0.67	0.701	0.746
HCC-44	1.11	1.06	1.17	1.15	1.07	0.624	0.652	0.639	0.721	0.69	0.798	0.775	0.751	0.796	0.789	0.95	0.933	0.948	1.02	0.954
NCI-H3122	0.244	0.233	0.241	0.252	0.259	0.202	0.216	0.198	0.193	0.19	0.817	0.755	0.777	0.853	0.859	0.441	0.478	0.406	0.508	0.469
LU99A	0.561	0.65	0.595	0.553	0.489	0.164	0.207	0.168	0.19	0.162	0.629	0.489	0.523	0.464	0.412	0.853	0.901	0.849	0.951	0.883
ABC-1											1.12	1.12	1.15	1.04	1.08	1.1	0.976	1.07	1.01	1.26
H3255	0.664	0.682	0.625	0.578	0.588	0.554	0.61	0.571	0.555	0.595	0.643	0.571	0.562	0.695	0.608	0.486		0.595	0.642	0.639
HCC-827	0.501	0.52	0.545	0.574	0.46	0.289	0.267	0.264	0.265	0.253	1.01		1.07	0.908	0.91	0.345		0.322	0.376	0.37
NCI-H1734	0.656	0.758	0.724	0.695	0.622	0.44	0.406	0.426	0.41	0.407	0.628	0.57	0.644	0.654	0.72	0.562	0.463	0.478	0.504	0.481
EBC-1											0.832	0.686	0.904	0.678	0.207					
NCI-H838	0.491	0.645	0.471	0.529	0.505	0.256	0.248	0.251	0.251	0.249	1	0.979	0.94	0.98	0.974	0.458	0.442	0.476	0.469	0.445
NCI-H1437	0.492	0.555	0.59	0.527	0.363	0.318	0.352	0.328	0.306	0.295	0.966	0.905	0.883	0.941	0.956	0.615	0.585	0.511	0.626	0.549
NCI-H1915	0.296	0.34	0.311	0.288	0.265	0.483	0.693	0.602	0.515	0.443	1.02	1	1.04	1.11	1.02	0.255	0.239	0.255	0.266	0.264
SK-MES-1	0.482	0.597	0.522	0.52	0.474	0.962	1.13	1.12	0.964	0.916	0.927	0.811	0.89	0.936	0.96	0.355	0.362	0.4	0.407	0.499
NCI-H2342	0.764		0.842	0.896	0.778	0.757		0.831	0.812	0.711						0.729	0.787	0.738	0.705	0.782
NCI-H1299											0.985	1.02	1.07	0.99	1.1					

Cell Line	relative viability (RU-SKI 43 + Trametinib; first compound 0.1 µM)	relative viability (RU-SKI 43 + Trametinib; first compound 0.3162 µM)	relative viability (RU-SKI 43 + Trametinib; first compound 1 µM)	relative viability (RU-SKI 43 + Trametinib; first compound 3.162 µM)	relative viability (RU-SKI 43 + Trametinib; first compound 10 µM)	relative viability (RU-SKI 43 + Pemetrexed; first compound 0.1 µM)	relative viability (RU-SKI 43 + Pemetrexed; first compound 0.3162 µM)	relative viability (RU-SKI 43 + Pemetrexed; first compound 1 µM)	relative viability (RU-SKI 43 + Pemetrexed; first compound 3.162 µM)	relative viability (RU-SKI 43 + Pemetrexed; first compound 10 µM)	relative viability (MK-8033 + Alpelisib; first compound 0.02 µM)	relative viability (MK-8033 + Alpelisib; first compound 0.06325 µM)	relative viability (MK-8033 + Alpelisib; first compound 0.2 µM)	relative viability (MK-8033 + Alpelisib; first compound 0.6325 µM)	relative viability (MK-8033 + Alpelisib; first compound 2 µM)	relative viability (MK-8033 + Decitabine; first compound 0.02 µM)	relative viability (MK-8033 + Decitabine; first compound 0.06325 µM)	relative viability (MK-8033 + Decitabine; first compound 0.2 µM)	relative viability (MK-8033 + Decitabine; first compound 0.6325 µM)	relative viability (MK-8033 + Decitabine; first compound 2 µM)
NCI-H1650	0.556	0.703	0.533	0.712	0.55	0.344	0.37	0.439	0.377	0.322						0.445	0.429	0.422	0.452	0.403
NCI-H647	0.445	0.57	0.472	0.521	0.439	0.169	0.178	0.199	0.169	0.169	1.18	1.02	0.929	1.16	1.07	0.33	0.362	0.382	0.372	0.305
NCI-H1944	0.349	0.406	0.417	0.387	0.388	0.614	0.711	0.566	0.619	0.707	0.82		0.747	0.849	0.873	0.42	0.388	0.44	0.456	0.458
NCI-H23	0.395	0.392	0.38	0.443	0.348	0.787	0.687	0.834	0.715	0.705	0.737	0.639	0.679	0.668	0.633	0.282	0.332	0.3		0.299
NCI-H1792	0.36	0.53	0.486	0.327	0.362	0.734	1.04	1.24	0.77	0.842	0.729	0.59	0.768	0.776	0.693	0.527	0.508	0.47	0.522	0.537
HCC-78	0.678	0.916	0.641	0.809	0.724	0.916	0.925	0.933	0.92	0.923	0.271	0.293	0.267		0.357	0.657	0.728	0.645	0.559	0.692
NCI-H358	0.125	0.138	0.181	0.139	0.124	0.169	0.189	0.17	0.176	0.176	0.794	0.755	0.725	0.797	0.772	0.205	0.192	0.211	0.261	0.198
NCI-H1648	0.43	0.459	0.715	0.568	0.378	0.682	0.861	0.531	0.659	0.558						0.402		0.543	0.515	0.468
NCI-H1703											0.407	0.273	0.354	0.266	0.309					
NCI-H1563						0.772	0.785	0.84	0.725	0.733	1.02	0.918	0.883	1.02	0.93					
NCI-H2228	0.37	0.55	0.466	0.396	0.306	0.288	0.353	0.302	0.376	0.299	0.815	0.551	0.629	0.768	0.841					
Calu-6											1.02	1.02	0.843	0.941	0.916					
ChaGo-K-1	0.921	1.01	0.899	0.941	0.906	0.268	0.299	0.249	0.284	0.265						0.525	0.463	0.56	0.385	0.511
IA-LM											0.787	0.536	0.723	0.736	0.729					
CAL-12T	0.306	0.242	0.316	0.259	0.351	1.16	1.36	1.39	1.2	1.22	1.08	1.08	1.08	1.25	1.06					
NCI-H522	0.862	0.723	0.675	0.883	0.715	1.26	0.966	1.18	1.02	1.16						0.552	0.617	0.73	0.612	0.725
SW 900	0.818	0.76	1.03	1.02	0.594	0.484	0.494	0.498	0.478	0.461						0.483	0.328	0.496	0.549	0.41
A549											0.692	0.685	0.83	0.456	0.651	0.263	0.319	0.474	0.156	0.305
NCI-H727		0.388	0.449	0.372	0.374						0.502	0.615	0.589	0.577	0.589	0.846	0.783	0.921	0.927	0.829
